The values below come from patent publication US12397059B2, “Compounds and methods for the treatment and prevention of fibrotic disease states and cancer” (Purdue Research Foundation, priority 2019, dated 2025).

The test system of data set [1] is BM-induced experimental pulmonary fibrosis in mice. To be noted: mouse, in vivo. On the procedure: Studies were also performed to determine if macrophages in pulmonary fibrotic lungs might be specifically targeted with folate-linked drugs in vivo. […] (The BM model is widely regarded to be helpful in terms of enabling mechanistic investigations relevant to fibrogenesis in an in vivo context.)
More specifically, eight-week-old C57BL6 male mice from Charles River (average weight 22 g to 25 g) were housed under pathogen-free conditions at room temperature (22° C.) under a 12 hours light-dark cycle. Mice were placed on a folate deficient chow (Envigo Teklad Global Rat Food Pellets) for 1 week prior to the BM or PBS instillation. Fresh water and folate-deficient diet were freely available. All animal procedures were approved by the Purdue Animal Care and Use Committee in accordance with National Institute of Health guidelines.
Thereafter, the mice were anesthetized with ketamine/xylazine and the necks of the mice were shaved using hair remover lotion and then sterilized with 70% alcohol. A small incision was made on the neck to visualize the trachea. Mice were positioned at a 75-degree angle and injected intratracheally with 100 μL sterile PBS or BM (Cayman Chemicals, Ann Arbor, MI; #13877) dissolved in PBS (0.75 mg/kg) using a 1 cc syringe with 26 G needle. Body weights were monitored every other day throughout the experiment.
Lobes of the right lung collected above were weighed, placed in a pressure-tight vial (Supelco Inc., Bellefonte, PA; #27003), and hydrolyzed with 6N HCl (10 ml/g, v/w) in a sand bath at 120° C. for 3.5 hours. The hydrolyzed solution was cooled at 4° C. for 15 min and transferred to a 1.5 ml Eppendorf tube prior to centrifugation at 12,000 rcf for 15 min at 4° C. Supernatant was carefully collected, aliquoted and used for hydroxyproline (HYP) analysis.
For the subsequent HYP analysis, 10 μl of sample was transferred into a 96-well plate and neutralized with 10 μl of 5.3 M sodium hydroxide solution. Isopropanol (40 μl) was then added to each well followed by 20 μl of oxidation buffer and the mixture was incubated on a shaker at room temperature for 5 min. Analytical reagent (260 μl) was added, and the plate was incubated on a shaker at room temperature for 30 seconds and incubated immediately at 60° C. for 25 min. The absorbance was measured at 560 nm (A560) within 15 min. All reagents were prepared according to a previously reported protocol.
For histological analysis of the lung sections, fixed lungs (see above) were embedded in paraffin, sectioned and stained with hematoxylin-eosin (H&E), Masson's trichrome or F3 (anti-mouse FRβ antibody). Tissue sections were examined in a blinded manner by a licensed pathologist. More than 90×10^6 cells were quantified per section using Aperio-Image Scope (Leica Biosystems, Wetzlar, DE).
For this, BM-treated mice were intravenously injected every other day beginning on day 10 with either vehicle (3% DMSO in PBS) or Compound 1B (see FIG. 8A). […] In BM-induced experimental pulmonary fibrosis in mice, inflammation is known to persist for about 9-10 days after BM installation. Because, inflammation to fibrosis switch happens in this model approximately day 9 to day 14, and profibrotic markers start appearing at about day 10, dosing began on day 10 (FIG. 8A).
Two doses were given every other day till day 21. The individual doses on a day are separated by 6 hours to prevent any “tolerance” to TLR agonists. Mice were then sacrificed on day 21 and subjected immediately to bronchoalveolar lavage followed by resection of the lungs for immunohistochemistry and quantitation of collagen and hydroxyproline.

The test system of data set [2] is M2-induced THP-1 macrophages. Briefly: Secreted CCL18 and IL-1β in THP-1 supernatants by ELISA. To be noted: THP-1 cells of FIGS. 14A-14C, low concentration range (0.1-10 nM). Format: cell-based, human.
Data set [3] concerns THP-1 cells polarized to M2-like macrophages. Briefly: Reprogramming of M2-like THP-1 macrophages, marker gene analysis by qPCR. The format is cell-based, human. To be noted: M2-induced THP-1, 2 hours, qPCR. Here is the method:
THP-1 cells were seeded into 96-well plates at a density of 60,000 cells/well. Cells were differentiated into unpolarized macrophages by 48 hours incubation with 200 nM PMA followed by 24 hours incubation in fresh RPMI medium. […] Cultures were maintained at 37° C. in a humidified 5% CO2 incubator.
Total RNA was isolated from 1×10^5 —2×10^5 macrophages using a Quick-RNA™ MicroPrep kit (Zymo Research, Irvine, CA) according to the manufacturer-recommended protocol. […] IL-6, CXCL10, IFNα, IFN-γ and CD86 were used as markers for an M1 phenotype, while CCL18, CD206, CD163 and Arg1 were employed as markers for the M2 phenotype. IL-1β, PDGFβ, MMP9 and TIMP 3 were measured as indicators of a profibrotic phenotype. IRAK-4 was used as an indicator of TLR7 stimulation. To control for specificity of the amplification products, a melting curve analysis was performed. […] Each sample was analyzed independently in triplicate for each marker.
Primarily, human monocytic (THP-1) cells were induced to the M2-like phenotype using the methods and materials previously described. In particular, THP-1 cells were seeded into 96-well plates at a density of 60,000 cells/well. Cells were differentiated into unpolarized macrophages by 48 h incubation with 200 nM PMA followed by 24 hours incubation in fresh RPMI medium. The resulting macrophages were polarized to an M2-like phenotype by incubation with 20 ng/ml IL-4, 20 ng/ml IL-13, and 5 ng/mL IL-6 for 48 h. Cultures were maintained at 37° C. in a humidified 5% CO2 incubator.
In addition to the nonconjugated TLR7 agonist, conjugated compounds of the present disclosure were likewise evaluated. […] The cells were subsequently harvested for gene analysis by qPCR and the relative expression of CCL18 (FIG. 14A), CD206 (FIG. 14B), and IL-1β (FIG. 14C) analyzed.
Background: Real-time PCR tracks product formation cycle by cycle.

Another data set concerns FRβ positive macrophages. To be noted: mouse, in vivo.
Another data set concerns the target T1, FRβ (Mus musculus, UniProt Q05685).
T1 construct: from tissue; host or cells: major organs (heart, lung, spleen, liver, small intestine, large intestine, kidney) of bleomycin- or PBS-treated C57BL/6 mice; FRβ-expressing lung macrophages
To be noted: in vivo. Here is the method: FIGS. 7C and 7D show FRβ IHC staining of human IPF lung tissue (FIG. 7C) and healthy human lung tissue (FIG. 7D). […] After 2 hours, mice were sacrificed prior to analysis.

T1 sequence (Q05685 21-227): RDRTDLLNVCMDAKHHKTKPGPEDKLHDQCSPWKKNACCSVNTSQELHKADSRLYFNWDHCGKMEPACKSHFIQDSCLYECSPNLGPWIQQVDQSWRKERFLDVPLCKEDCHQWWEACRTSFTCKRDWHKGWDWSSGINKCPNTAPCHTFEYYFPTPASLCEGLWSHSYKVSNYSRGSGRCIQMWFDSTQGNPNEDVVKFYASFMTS
Method for FRβ positive macrophages: To evaluate if profibrotic lung macrophages in these mice can be specifically targeted with folate-linked drugs, 10 days after the instillation, 10 nmol (for in vivo imaging) or 100 nmol (for in vivo labeling) of a folate-linked, near infrared fluorescent dye (OTL38) with or without 200-fold excess of FA-glucosamine (a competitor of OTL38) was injected into the tail veins of BM-treated mice and the dye uptake in the major organs was evaluated.
Finally, for the in vivo folate imaging studies, major organs (heart, lung, spleen, liver, small intestine, large intestine, and kidney) were resected and imaged using an AMI live imager (Spectral Instruments Imaging, Tucson, AZ). For in vivo folate receptor labeling studies, lungs of the mice were harvested immediately following euthanasia, digested with a lung dissociation kit (Miltenyi Biotec, Bergisch Gladbach, DE; #130-098-427) as described by gentleMACS Octo Dissociator with Heathers (Miltenyi Biotec, Bergisch Gladbach, DE; #130-096-427) as described by manual and filtered through a 70 μm cell strainer (Miltenyi Biotec, Bergisch Gladbach, DE; #130-098-462). […] Labeled macrophages were then washed twice in PBS, stained with 7AAD (viability stain) for 15 min and analyzed by flow cytometry using BD Accuri C6 Software (BD Biosciences, San Jose, CA). […]

For the compound `CCCCc1nc2c(N)nc3ccccc3c2n1CC(C)(C)O` [Compound 1A, 1-(4-Amino-2-butyl-1H-imidazo[4,5-c]quinolin-1-yl)-2-methylpropan-2-ol], in data set [1], the body weight change entry was “rapid body weight loss followed by death”.
For the compound `Nc1nc(C(F)(F)F)cc2c1[nH]c(=O)n2Cc1ccc(NCCN2CCCC(CO)C2)nc1` (centres unmarked) [Compound 3A], the “secretion of CCL18 protein” value in data set [2] is “downregulated”.
Consider `Nc1nc2ncc(CNc3ccc(C(=O)NC(CCC(=O)N[C@@H](CSSCCOC(=O)OCC4CCCN(CCNc5ccc(Cn6c(=O)[nH]c7c(N)nc(C(F)(F)F)cc76)cn5)C4)C(=O)O)C(=O)O)cc3)nc2c(=O)[nH]1` (some centres unmarked) [Compound 3B], for which, in data set [3], the CCL18 relative expression entry was “reduced”, the CD206 relative expression result is “reduced” and the IL-1β relative expression entry is reported as “reduced”. Moreover, the “secretion of CCL18 protein” value in data set [2] is reported as “downregulated”.
For the compound `Nc1nc2ncc(CNc3ccc(C(=O)N[C@@H](CCC(=O)NCCOCCOCCOCCOCCOCCOCCOCCOCCOCCOCCOCCOCCOCC4CCCN(CCNc5ccc(Cn6c(=O)[nH]c7c(N)nc(C(F)(F)F)cc76)cn5)C4)C(=O)O)cc3)nc2c(=O)[nH]1` (some centres unmarked) [Compound 3C], in data set [3], the CCL18 relative expression entry is given as “reduced”, the CD206 relative expression result is “reduced”, the IL-1β relative expression result is given as “reduced” and the “effectiveness in reducing profibrotic markers relative to the other compounds” value is reported as “most effective relative to the other compounds”. Also, in data set [1], the “benefit to the subject mice” value was “did not show measurable benefit”, the “hydroxyproline (HP)” value was “decreasing”, the “number of BALF cells” value is recorded as “decreasing” and the survival rates entry was “increased the survival rates”. Further, the “secretion of CCL18 protein” value in data set [2] is listed as “downregulated”.
Regarding `Nc1nc2ncc(CNc3ccc(C(=O)N[C@@H](CCC(=O)NCCOCCOCCOCCOCC4CCCN(CCNc5ccc(Cn6c(=O)[nH]c7c(N)nc(C(F)(F)F)cc76)cn5)C4)C(=O)O)cc3)nc2c(=O)[nH]1` (some centres unmarked) [Compound 3D], in data set [3], the CCL18 relative expression entry is on record as “reduced”, the CD206 relative expression result was “reduced”, the IL-1β relative expression entry is listed as “reduced” and the “effectiveness in reducing profibrotic markers relative to the other compounds” value is “most effective relative to the other compounds”. The “secretion of CCL18 protein” value in data set [2] was “downregulated”.
Turning to OTL38, the “folate-dye retention with 200-fold excess folate-glucosamine” value in the data set on FRβ positive macrophages was “blocked essentially all folate-dye retention”. Besides, in the data set with FRβ, the “OTL38 fluorescence in organs of healthy mice” value was “only observed in the kidneys” and the “lung accumulation with 200-fold excess folate-glucosamine” value is given as “nearly quantitative blockade of lung accumulation”.
